Data set [1] in a line: MTT assay (mitochondrial activity), murine fibroblasts. The conditions noted are these: mouse. The protocol:
(§1) NIH/3T3 (ATCC CRL-1658) mouse embryonic fibroblasts were grown in Dulbecco’s modified Eagle’s medium (DMEM) supplemented with 2 mM glutamine, 10 % foetal bovine serum and a 1 % antibiotic-antimycotic solution at 37 °C in a humidified atmosphere with 5 % CO2.
(§2) NIH/3T3 and BF-2 cells were seeded in 96-well plates at a density of 1 × 10^4 or 2 × 10^4 cells per well, respectively. After 24 h of incubation at an appropriate temperature, cells were exposed to betulin at the concentrations mentioned above for 24, 48 and 72 h. Control (untreated) cells served as the negative control and a reference point. Triton X-100 treated cells served as the positive internal control in MTT, NRU and LDH assays. Due to the specific character of SRB assay, there was no positive control in this test. After 24, 48 and 72 h of treatment, the four different cytotoxicity assays were performed. All experiments were repeated three times.
(§3) The MTT assay is used to estimate mitochondrial damage, since it determines the activity of mitochondrial enzymes. These enzymes reduce the water-soluble tetrazolium dye MTT to insoluble purple formazan, which accumulates inside viable cells.
(§4) The MTT assay was conducted using the protocol described by Mosmann, with some modifications described in our previous article.
(§5) The MTT assay was used to determine the cytotoxicity of both betulin and the vehicle (DMSO).
(§6) All experiments were repeated three times. […] Statistical analyses were performed using GraphPad Prism software (GraphPad Software, USA). Data were subjected to one-way analysis of variance (ANOVA). Dunnett’s posttest was used to determine differences between control and betulin-exposed cells at the same time points. Differences between the two cell lines at the same time points were determined using Student’s t-test. The 50 % cytotoxic concentrations (CC50, defined as the concentration of the compound that reduced cell viability by 50 %) were calculated using the Quest Graph™ ED50 Calculator (AAT Bioquest, Inc.).
(In general: Tetrazolium dyes change colour on reduction, which living cells bring about.)

Data set [2] has as its system NIH/3T3 cells. Described as above. The protocol: as §1, §2, §3, §4, §5, §6
Data set [3] is described as follows: MTT assay (mitochondrial activity), fish fibroblasts. The conditions noted are these: bluegill, BF-2 caudal trunk fibroblasts, mean ± SD, n = 3. In kind it is cell-based, bluegill. The protocol: (§7) BF-2 (ATCC CCL-91) bluegill caudal trunk fibroblasts were grown in minimum essential medium (Eagle, EBSS) supplemented with 1 % nonessential amino acids (NEAAs), 10 % foetal bovine serum and 1 % antibiotic-antimycotic solution at 23 °C in a humidified atmosphere with 5 % CO2.
(§8) All experiments were repeated three times.

In another data set the test system is BF-2 cells. Described as above. In kind it is cell-based, bluegill. The conditions noted are these: fish cells. The protocol:
as §7, §8

Data set [4] is described as follows: NRU assay (lysosomal membrane integrity), fish fibroblasts. In kind it is cell-based, bluegill. The conditions noted are these: bluegill, BF-2 caudal trunk fibroblasts, mean ± SD, n = 3. The protocol: as §7, §8
The NRU assay evaluates lysosomal membrane integrity. It measures neutral red dye accumulation within lysosomes of viable cells.
The NRU assay was performed using a commercially available kit (TOX4) (Sigma-Aldrich, Poland) according to the manufacturer’s protocol. The full description of the test procedure was also provided in a published article.

Data set [5] relates to NIH/3T3 cells. The data set can be described thus: LDH leakage assay (cellular membrane integrity), murine fibroblasts. Format: cell-based, mouse. To be noted: NIH/3T3, 24 h. The protocol:
as §8
The LDH assay measures leakage of the stable cytosolic enzyme lactate dehydrogenase into the culture medium, which is an indicator of irreversible cell membrane damage and cell death.
The LDH assay was performed using a commercially available kit (TOX7) (Sigma-Aldrich, Poland) according to the manufacturer’s protocol. The full description of the test procedure was also reported previously. The results obtained are reported as the percentage of LDH leakage to the culture media in control (nontreated) cells.
Background: Release of lactate dehydrogenase indicates damage to the cell membrane.

The nature of data set [6]: Solubility of betulin in DMSO. In kind it is physicochemical. To be noted: organic solvent or mixture, thermodynamic from solid, room temperature, read-out: maximum solubility of betulin in DMSO. The protocol: We were able to dissolve 5000 µg of betulin in 1 mL of DMSO, although it required heating, and the solution remained unstable. After mixing with the cell culture medium, the solution immediately became slightly turbid.
A stock solution of betulin was prepared in DMSO at a concentration of 2500 µg/mL, and working solutions were prepared in cell maintenance media (serum-free) at final concentrations of 0 (control cells), 0.244, 0.488, 0.976, 1.95, 3.9, 7.8, 15.625 and 31.25 µg/mL immediately before use in cell culture.

The subject of data set [7] is B16 cells (B164A5 and B16F10). Further details: method as in PMID 25756279. The conditions noted are these: B16 melanoma cells; cited from earlier work.
For data set [8], the system named is murine fibroblasts (Balb 3T3 line). Further details: method as in PMID 23595090. To be noted: Balb 3T3, incubation time not given; cited from earlier work.
Another data set deals with NB-1. Further details: method as in PMID 12697374. To be noted: NB-1 neuroblastoma; read-out: IC50 of betulin; cited from earlier work.
The next data set deals with B16-F1 (mouse melanoma). More on the design: method as in PMID 16787747. To be noted: read-out: IC50 of betulin; cited from earlier work.
For another data set, the system named is Bcap-37 (breast cancer). More on the design: method as in PMID 22627971, PMID 23379693. To be noted: Bcap-37, 20 µM; cited from earlier work.
The subject of data set [9] is SW707 (colorectal adenocarcinoma). More on the design: method as in PMID 23595090. To be noted: SW707, SRB assay; cited from earlier work. In general terms: The SRB assay estimates cell density from bound dye.
In another data set the test system is T47D (breast cancer). Further details: method as in PMID 23595090. The conditions noted are these: SRB assay; cited from earlier work.
A further data set deals with porcine chondrocytes. To be noted: cited from earlier work.

Converted amounts (≈) assume the structure as drawn.

The term solubility denotes how much of the substance goes into solution per volume. The IC50 is the concentration needed to halve the response being measured.

As to `C=C(C)[C@@H]1CC[C@]2(CO)CC[C@]3(C)[C@H](CC[C@@H]4[C@@]5(C)CC[C@H](O)C(C)(C)[C@@H]5CC[C@]43C)[C@@H]12` [betulin, Betulin], the CC50 at 24 h came out at 1.532 ± 0.005 µg/mL (≈ 3.46 µM) in data set [1]; 3.39 ± 0.903 µg/mL (≈ 7.67 µM) in data set [3] (BF-2, 24 h, read-out: CC50 betulin MTT 24 h); 27.6 ± 9.01 µg/mL (≈ 62.4 µM) in data set [4] (BF-2, 24 h, read-out: CC50 betulin NRU 24 h). For the same compound, the CC50 at 48 h in data set [1] was found to be 1.58 ± 0.64 µg/mL (≈ 3.58 µM); in data set [3] (BF-2, 48 h, read-out: CC50 betulin MTT 48 h) it was 2.75 ± 1.05 µg/mL (≈ 6.21 µM); in [4] (BF-2, 48 h, read-out: CC50 betulin NRU 48 h), 16.5 ± 3.6 µg/mL (≈ 37.2 µM). The CC50 at 72 h in data set [1] came to 1.85 ± 0.647 µg/mL (≈ 4.19 µM); in data set [3] (BF-2, 72 h, read-out: CC50 betulin MTT 72 h), 3.02 ± 1.03 µg/mL (≈ 6.82 µM); in data set [4] (BF-2, 72 h, read-out: CC50 betulin NRU 72 h), 14.5 ± 3.41 µg/mL (≈ 32.8 µM). For the same compound, the “decrease in cell viability in the MTT assay” value with NIH/3T3 cells [2] (NIH/3T3, betulin 7.8 µg/mL, 72 h) is on record as “approximately 80%”. Also, the “betulin concentration causing statistically significant decrease in viability (MTT)” value in the data set on NIH/3T3 cells [2] (mouse cells, 24 h, threshold persisted until termination of the experiment) is at least 1.95 µg/mL; in the data set on BF-2 cells (24 h), at least 1.95 µg/mL. Besides, the “lower betulin concentration causing considerable decrease in viability (MTT)” value in the data set with BF-2 cells (starting at 48 h of incubation) was found to be 0.976 µg/mL. In addition, in the data set with NIH/3T3 cells [5], the “betulin concentration inducing substantial LDH leakage” value was determined as 7.8 µg/mL. Besides, in data set [6], the solubility was found to be 2500 µg/mL (≈ 5650 µM). Also, the “betulin concentration from which almost complete lack of cell mitochondrial activity was observed (MTT)” value in [7] is listed as at least 15 µM. Moreover, the “IC50 of betulin (SRB)” value in data set [8] was 47.3 µg/mL. For the same compound, the IC50 with NB-1 is 16.5 µM; in the data set on B16-F1 (mouse melanoma), 13.8 µM. Also, the “inhibitory activity of betulin” value in the data set with Bcap-37 (breast cancer) is on record as 53.2%. The IC50 of betulin in data set [9] was 22.9 µg/mL; with T47D (breast cancer) it was 32.4 µg/mL. For the same compound, the “betulin concentrations not affecting integrity of the cytoplasmic membrane (LDH)” value with porcine chondrocytes is reported as “up to 5.12 µg/mL”.

These data come from article PMC8152350, “High cytotoxicity of betulin towards fish and murine fibroblasts: Is betulin safe for nonneoplastic cells?” (BMC Veterinary Research, 2021).
